Laboratory results taken from article PMC2932867 (Human mutation, 2010).

T1: human ATR (ATP:cob(I)alamin adenosyltransferase; hATR) (Homo sapiens, UniProt Q96EY8)
T1 sequence (Q96EY8 33-250): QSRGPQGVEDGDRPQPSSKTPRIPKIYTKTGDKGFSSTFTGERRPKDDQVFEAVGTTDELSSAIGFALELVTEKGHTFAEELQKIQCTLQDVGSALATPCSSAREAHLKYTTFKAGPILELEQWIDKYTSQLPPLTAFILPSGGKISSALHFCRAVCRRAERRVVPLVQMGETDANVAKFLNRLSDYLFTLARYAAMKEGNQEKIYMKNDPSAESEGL

T2: human ATR (ATP:cob(I)alamin adenosyltransferase; hATR) (Homo sapiens, UniProt Q96EY8, I96T)
T2 sequence (Q96EY8 33-250 I96T): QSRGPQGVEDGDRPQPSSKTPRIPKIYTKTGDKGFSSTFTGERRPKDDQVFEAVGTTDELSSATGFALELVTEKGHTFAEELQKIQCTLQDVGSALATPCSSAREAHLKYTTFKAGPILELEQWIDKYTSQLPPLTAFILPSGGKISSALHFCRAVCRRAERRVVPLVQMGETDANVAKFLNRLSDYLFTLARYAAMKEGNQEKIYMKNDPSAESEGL


What was measured:
[1] = target: T1, human ATR (ATP:cob(I)alamin adenosyltransferase; hATR); experiment: intrinsic fluorescence titration; assay type: binding; conditions: read-out: wild-type; 50 mM Tris-HCl pH 8.0
[2] = target: T2, human ATR (ATP:cob(I)alamin adenosyltransferase; hATR); experiment: intrinsic fluorescence titration; assay type: binding; conditions: read-out: p.I96T; 50 mM Tris-HCl pH 8.0
SEC = target: the molecule itself; experiment: SEC

| Kd [1] | Kd [2] | Molecule | stoichiometry N (SEC) |
| --- | --- | --- | --- |
| 7.8 ± 0.5 µM | 13.3 ± 0.3 µM | CNCbl | – |
| – | – | ATP:cob(I)alamin adenosyltransferase p.I96T mutant, human, without the mitochondrial targeting sequence (enzyme, UniProt Q96EY8 33-250, looked up) QSRGPQGVEDGDRPQPSSKTPRIPKIYTKTGDKGFSSTFTGERRPKDDQVFEAVGTTDELSSATGFALELVTEKGHTFAEELQKIQCTLQDVGSALATPCSSAREAHLKYTTFKAGPILELEQWIDKYTSQLPPLTAFILPSGGKISSALHFCRAVCRRAERRVVPLVQMGETDANVAKFLNRLSDYLFTLARYAAMKEGNQEKIYMKNDPSAESEGL | 3 |
